Measurements: PMC11851430, “Workflow for E3 Ligase Ligand Validation for PROTAC Development” (ACS Chemical Biology, 2025)

How the values were obtained:
Experiment in all cases: DSF assay
Format in all cases: binding
Settings in all cases: 20 µM compound
CAMK4A = biological target: T1, CAMK4A (Homo sapiens, UniProt Q16566)
T1 construct: purchased in-house DSF panel (SGC-style construct names; the trailing A/B is a construct suffix)
T1 sequence (Q16566 1-473): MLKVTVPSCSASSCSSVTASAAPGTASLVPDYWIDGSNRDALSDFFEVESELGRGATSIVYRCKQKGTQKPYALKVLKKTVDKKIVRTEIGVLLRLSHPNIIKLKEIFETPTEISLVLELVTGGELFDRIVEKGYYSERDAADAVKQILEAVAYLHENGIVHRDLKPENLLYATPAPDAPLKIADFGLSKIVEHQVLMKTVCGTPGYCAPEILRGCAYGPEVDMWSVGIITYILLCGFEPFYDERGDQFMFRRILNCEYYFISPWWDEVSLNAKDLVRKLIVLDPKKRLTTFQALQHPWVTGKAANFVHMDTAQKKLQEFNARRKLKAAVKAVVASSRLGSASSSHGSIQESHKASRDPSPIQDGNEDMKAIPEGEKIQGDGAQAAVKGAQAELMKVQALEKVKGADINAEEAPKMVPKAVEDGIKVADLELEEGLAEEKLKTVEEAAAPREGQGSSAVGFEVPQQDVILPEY

DMPK1A = biological target: T2, DMPK1A (Homo sapiens, UniProt Q09013)
T2 construct: purchased in-house DSF panel (SGC-style construct names; the trailing A/B is a construct suffix)
T2 sequence (Q09013 1-629): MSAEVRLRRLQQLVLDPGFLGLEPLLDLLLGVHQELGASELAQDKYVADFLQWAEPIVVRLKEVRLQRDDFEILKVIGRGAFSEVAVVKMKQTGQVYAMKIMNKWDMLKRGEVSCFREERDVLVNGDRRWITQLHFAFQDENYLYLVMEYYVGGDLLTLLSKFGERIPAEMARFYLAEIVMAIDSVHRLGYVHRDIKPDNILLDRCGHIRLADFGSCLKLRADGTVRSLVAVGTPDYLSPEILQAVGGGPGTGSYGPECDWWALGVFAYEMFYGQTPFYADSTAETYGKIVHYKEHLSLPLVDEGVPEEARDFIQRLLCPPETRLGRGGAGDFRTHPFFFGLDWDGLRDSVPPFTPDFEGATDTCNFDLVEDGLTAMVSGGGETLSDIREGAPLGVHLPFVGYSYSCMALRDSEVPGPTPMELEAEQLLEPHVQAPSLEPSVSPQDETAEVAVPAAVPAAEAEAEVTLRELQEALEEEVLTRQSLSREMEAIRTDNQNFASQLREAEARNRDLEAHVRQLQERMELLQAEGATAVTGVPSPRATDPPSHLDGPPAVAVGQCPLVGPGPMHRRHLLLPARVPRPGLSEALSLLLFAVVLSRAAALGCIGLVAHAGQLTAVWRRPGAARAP

AURKBA = biological target: T3, AURKBA (Homo sapiens, UniProt Q96GD4)
T3 construct: purchased in-house DSF panel (SGC-style construct names; the trailing A/B is a construct suffix)
T3 sequence (Q96GD4 whole entry): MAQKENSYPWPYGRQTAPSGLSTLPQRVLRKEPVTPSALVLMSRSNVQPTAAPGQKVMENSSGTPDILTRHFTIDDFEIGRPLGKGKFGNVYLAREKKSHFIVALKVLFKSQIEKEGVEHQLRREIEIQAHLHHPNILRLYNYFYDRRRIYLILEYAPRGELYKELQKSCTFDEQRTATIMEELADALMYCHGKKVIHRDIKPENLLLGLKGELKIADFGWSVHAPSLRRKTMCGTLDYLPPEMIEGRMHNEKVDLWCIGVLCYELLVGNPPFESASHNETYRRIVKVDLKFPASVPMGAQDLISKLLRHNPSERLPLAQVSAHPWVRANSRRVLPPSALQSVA

CAMK1GA = biological target: T4, CAMK1GA (Homo sapiens, UniProt Q96NX5)
T4 construct: purchased in-house DSF panel (SGC-style construct names; the trailing A/B is a construct suffix)
T4 sequence (Q96NX5 23-277): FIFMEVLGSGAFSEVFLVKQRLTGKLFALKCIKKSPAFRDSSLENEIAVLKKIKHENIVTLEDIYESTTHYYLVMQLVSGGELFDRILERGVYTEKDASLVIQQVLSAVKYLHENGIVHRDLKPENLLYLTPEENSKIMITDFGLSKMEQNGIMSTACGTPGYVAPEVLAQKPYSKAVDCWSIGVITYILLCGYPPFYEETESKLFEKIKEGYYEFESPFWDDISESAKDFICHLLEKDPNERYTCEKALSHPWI

EPHA7A = biological target: T5, EPHA7A (Homo sapiens, UniProt Q15375)
T5 construct: purchased in-house DSF panel (SGC-style construct names; the trailing A/B is a construct suffix)
T5 sequence (Q15375 590-899): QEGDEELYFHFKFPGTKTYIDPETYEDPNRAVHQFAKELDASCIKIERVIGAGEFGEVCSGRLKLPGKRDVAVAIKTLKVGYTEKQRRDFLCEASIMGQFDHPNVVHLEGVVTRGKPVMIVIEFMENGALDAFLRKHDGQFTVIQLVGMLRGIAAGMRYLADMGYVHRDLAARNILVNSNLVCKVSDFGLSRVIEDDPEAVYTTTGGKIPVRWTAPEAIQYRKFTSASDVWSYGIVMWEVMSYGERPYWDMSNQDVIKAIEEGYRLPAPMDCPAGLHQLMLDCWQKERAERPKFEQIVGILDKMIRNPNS

PLK4A = biological target: T6, PLK4A (Homo sapiens, UniProt O00444)
T6 construct: purchased in-house DSF panel (SGC-style construct names; the trailing A/B is a construct suffix)
T6 sequence (O00444 2-275): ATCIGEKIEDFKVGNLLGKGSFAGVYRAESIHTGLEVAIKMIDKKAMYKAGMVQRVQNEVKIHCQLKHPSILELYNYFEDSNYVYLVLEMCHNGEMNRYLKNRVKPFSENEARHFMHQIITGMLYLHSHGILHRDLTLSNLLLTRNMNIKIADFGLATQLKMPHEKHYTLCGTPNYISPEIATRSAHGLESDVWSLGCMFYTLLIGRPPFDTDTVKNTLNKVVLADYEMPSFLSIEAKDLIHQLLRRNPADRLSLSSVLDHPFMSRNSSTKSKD

RPS6K5A = system: RPS6K5A
ABL1A = biological target: T7, ABL1A (Homo sapiens, UniProt P00519)
T7 construct: purchased in-house DSF panel (SGC-style construct names; the trailing A/B is a construct suffix)
T7 sequence (P00519 229-512): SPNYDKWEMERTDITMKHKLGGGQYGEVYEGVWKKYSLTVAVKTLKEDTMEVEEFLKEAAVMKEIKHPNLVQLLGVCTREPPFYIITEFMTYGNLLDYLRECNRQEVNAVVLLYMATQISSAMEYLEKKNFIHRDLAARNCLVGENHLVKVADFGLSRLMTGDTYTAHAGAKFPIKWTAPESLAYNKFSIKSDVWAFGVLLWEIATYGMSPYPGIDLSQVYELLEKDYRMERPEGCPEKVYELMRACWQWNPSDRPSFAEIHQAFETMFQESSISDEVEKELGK

DYRK2A = biological target: T8, DYRK2A (Homo sapiens, UniProt Q92630)
T8 construct: purchased in-house DSF panel (SGC-style construct names; the trailing A/B is a construct suffix)
T8 sequence (Q92630 146-552): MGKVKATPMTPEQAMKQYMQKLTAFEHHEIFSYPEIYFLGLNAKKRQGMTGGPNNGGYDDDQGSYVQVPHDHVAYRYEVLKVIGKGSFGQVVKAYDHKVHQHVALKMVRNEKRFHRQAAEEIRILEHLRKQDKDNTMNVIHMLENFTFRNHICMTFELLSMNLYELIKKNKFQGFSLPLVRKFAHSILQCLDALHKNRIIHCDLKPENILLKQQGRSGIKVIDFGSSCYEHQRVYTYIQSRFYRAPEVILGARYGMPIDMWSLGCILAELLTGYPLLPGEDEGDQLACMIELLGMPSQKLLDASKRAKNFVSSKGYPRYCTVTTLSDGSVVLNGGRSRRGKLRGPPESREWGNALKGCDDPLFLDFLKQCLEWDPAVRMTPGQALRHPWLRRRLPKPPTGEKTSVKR

CDKL1A = biological target: T9, CDKL1A (Homo sapiens, UniProt Q00532)
T9 construct: purchased in-house DSF panel (SGC-style construct names; the trailing A/B is a construct suffix)
T9 sequence (Q00532 1-303): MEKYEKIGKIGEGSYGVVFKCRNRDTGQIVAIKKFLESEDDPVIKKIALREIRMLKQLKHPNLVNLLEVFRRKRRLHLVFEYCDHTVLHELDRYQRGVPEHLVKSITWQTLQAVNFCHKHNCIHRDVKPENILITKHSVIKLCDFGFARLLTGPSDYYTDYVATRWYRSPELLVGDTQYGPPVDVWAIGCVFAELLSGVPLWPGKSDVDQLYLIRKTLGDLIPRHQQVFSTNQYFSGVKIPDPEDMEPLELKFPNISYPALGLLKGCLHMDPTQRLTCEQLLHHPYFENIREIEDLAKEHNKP

GAKA = biological target: T10, GAKA (Homo sapiens, UniProt O14976)
T10 construct: purchased in-house DSF panel (SGC-style construct names; the trailing A/B is a construct suffix)
T10 sequence (O14976 14-351): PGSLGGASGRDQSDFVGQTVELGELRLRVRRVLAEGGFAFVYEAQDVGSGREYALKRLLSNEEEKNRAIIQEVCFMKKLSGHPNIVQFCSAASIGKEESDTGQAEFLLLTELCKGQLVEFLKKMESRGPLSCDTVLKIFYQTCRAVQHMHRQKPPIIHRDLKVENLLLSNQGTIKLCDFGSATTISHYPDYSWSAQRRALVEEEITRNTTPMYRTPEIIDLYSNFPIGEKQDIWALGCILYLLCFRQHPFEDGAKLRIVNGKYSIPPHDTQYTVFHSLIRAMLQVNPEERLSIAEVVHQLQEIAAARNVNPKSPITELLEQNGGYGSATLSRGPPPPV

ΔTm at 20 µM (CAMK4A) [°C]	ΔTm at 20 µM (DMPK1A) [°C]	ΔTm at 20 µM (AURKBA) [°C]	ΔTm at 20 µM (CAMK1GA) [°C]	ΔTm at 20 µM (EPHA7A) [°C]	ΔTm at 20 µM (PLK4A) [°C]	ΔTm at 20 µM (ABL1A) [°C]	ΔTm at 20 µM (DYRK2A) [°C]	ΔTm at 20 µM (CDKL1A) [°C]	ΔTm at 20 µM (GAKA) [°C]	SMILES	ΔTm (RPS6K5A) [°C]
2.43	3.19	12.7	0.98	1.51	16.1	11.3	7.18	6.63	5.92	CC(C)(C)OC(=O)NCCOCCOCCOCCOCCC(=O)N1CCN(c2cc(Nc3cc(C4CC4)[nH]n3)nc(Nc3ccc(CC#N)cc3)n2)CC1 [4-L]	9.52
5.11	3.69	2.62	3.37	2.65	11.6	6.31	7.69	6.41	3.75	CC(C)(C)OC(=O)NCCCOCCOCCOCCCNC(=O)c1cc(Nc2cc(C3CC3)[nH]n2)nc(Nc2ccc(CC#N)cc2)n1 [5-L]	11.21
3.64	3.8	8.24	1.53	3.39	13.2	7.27	7.58	6.89	4.56	CCOC(=O)c1cc(Nc2cc(C3CC3)[nH]n2)nc(Nc2ccc(CC#N)cc2)n1 [compound 5]	14.62
